Measured values published in patent US3962249A, “1-(3-Phenylpropyl)-4-furoylpiperazine derivatives” (Kyorin Seiyaku Kabushiki Kaisha, priority 1974, dated 1976).

Tests used:
[1] = tested on: acetic acid-induced writhing; experiment: inhibition of acetic acid-induced writhing counts in mice (analgesic effect); type: in vivo; details: Mus musculus, read-out: ED50 (50% Effective dose)
[2] = acute toxicity, LD50 in mice by subcutaneous injection (Up and Down method); type: in vivo; details: mouse, sc, drugs dissolved in physiological saline
Experimental: **) LD50 in mice by subcutaneous injection of the drugs (calculated
by the Up and Down method). Drugs are dissolved in physiological saline

For `Cl.O=C(c1ccco1)N1CCN(CCCc2ccccc2)CC1` [Example 1, 1-(3-Phenylpropyl)-4-(2-furoyl)piperazine hydrochloride], the ED50 [1] was 7.8 mg/kg and the LD50 [2] was 400 mg/kg.
`C[C@@H]1CN(CCCc2ccccc2)[C@@H](C)CN1C(=O)c1ccco1.Cl` (relative stereo) [Example 2, trans-1-(3-Phenylpropyl)-2,5-dimethyl-4-(2-furoyl)-piperazine hydrochloride] gave an ED50 [1] of 1.52 mg/kg and an LD50 [2] greater than 500 mg/kg.
`Cc1ccccc1CCCN1CCN(C(=O)c2ccco2)CC1.Cl` [Example 7, 1-[3-(o-Methylphenyl)propyl]-4-(2-furoyl)piperazine hydrochloride] showed an ED50 [1] of 3 mg/kg and an LD50 [2] of 400 mg/kg.
For `CC1CN(CCCc2ccccc2)CCN1C(=O)c1ccco1.Cl` (stereo not drawn) [Example 4, 1-(3-Phenylpropyl)-3-methyl-4-(2-furoyl)piperazine hydrochloride], the ED50 [1] was 3.42 mg/kg and the LD50 [2] was greater than 750 mg/kg.
Compound `Cc1ccccc1CCCN1C[C@@H](C)N(C(=O)c2ccco2)C[C@@H]1C.Cl` (relative stereo) [Example 15, trans-1-[3-(o-Methylphenyl)propyl]-2,5-dimethyl-4-(2-furoyl)piperazine hydrochloride] has an ED50 [1] of 1 mg/kg and an LD50 [2] greater than 750 mg/kg.
`CC1(C)CN(CCCc2ccccc2)CCN1C(=O)c1ccco1.Cl` [Example 5, 1-(3-Phenylpropyl)-3,3-dimethyl-4-(2-furoyl)piperazine hydrochloride] showed an ED50 [1] of 2.2 mg/kg and an LD50 [2] greater than 500 mg/kg.
Compound `Cc1cccc(CCCN2CCN(C(=O)c3ccco3)CC2)c1.Cl` [Example 8, 1-[3-(m-Methylphenyl)propyl]-4-(2-furoyl)piperazine hydrochloride] has an ED50 [1] of 3.35 mg/kg and an LD50 [2] of 350 mg/kg.
`CCOc1ccc(CCCN2CCN(C(=O)c3ccco3)CC2)cc1.Cl` [Example 9, 1-[3-(p-Ethoxyphenyl)propyl]-4-(2-furoyl)piperazine hydrochloride] gave an ED50 [1] of 8.85 mg/kg and an LD50 [2] of 400 mg/kg.
With `CC1CN(C(=O)c2ccco2)CCN1CCCc1ccccc1` (stereo not drawn) [Example 3, 1-(3-Phenylpropyl)-2-methyl-4-(2-furoyl)piperazine] the ED50 [1] was 5.17 mg/kg and the LD50 [2] was 300 mg/kg.
For `Cc1occc1C(=O)N1CCN(CCCc2ccccc2)CC1.Cl` [Example 11, 1-(3-Phenylpropyl)-4-(2-methyl-3-furoyl)piperazine hydrochloride], the ED50 [1] was 1.81 mg/kg and the LD50 [2] was 170 mg/kg.
Work on `Cc1cccc(CCCN2C[C@@H](C)N(C(=O)c3ccco3)C[C@@H]2C)c1.Cl` (relative stereo) [Example 16, trans-1-[3-(m-Methylphenyl)propyl]-2,5-dimethyl-4-(2-furoyl)piperazine hydrochloride] yielded an ED50 [1] of 1.05 mg/kg and an LD50 [2] greater than 500 mg/kg.
Work on `Cc1cc(C(=O)N2CCN(CCCc3ccccc3)CC2)co1.Cl` [Example 12, 1-(3-Phenylpropyl)-4-(5-methyl-3-furoyl)piperazine hydrochloride] yielded an ED50 [1] of 3.93 mg/kg and an LD50 [2] of 200 mg/kg.
